For three compounds, IC50 results are on record in ChEMBL document CHEMBL2177000, “Pharmacokinetic optimization of class-selective histone deacetylase inhibitors and identification of associated candidate predictive biomarkers of hepatocellular carcinoma tumor response” (J Med Chem, 2012).

One test addresses T1, Cytochrome P450 1A2 (Homo sapiens, UniProt P05177).
T1 sequence (P05177 whole entry): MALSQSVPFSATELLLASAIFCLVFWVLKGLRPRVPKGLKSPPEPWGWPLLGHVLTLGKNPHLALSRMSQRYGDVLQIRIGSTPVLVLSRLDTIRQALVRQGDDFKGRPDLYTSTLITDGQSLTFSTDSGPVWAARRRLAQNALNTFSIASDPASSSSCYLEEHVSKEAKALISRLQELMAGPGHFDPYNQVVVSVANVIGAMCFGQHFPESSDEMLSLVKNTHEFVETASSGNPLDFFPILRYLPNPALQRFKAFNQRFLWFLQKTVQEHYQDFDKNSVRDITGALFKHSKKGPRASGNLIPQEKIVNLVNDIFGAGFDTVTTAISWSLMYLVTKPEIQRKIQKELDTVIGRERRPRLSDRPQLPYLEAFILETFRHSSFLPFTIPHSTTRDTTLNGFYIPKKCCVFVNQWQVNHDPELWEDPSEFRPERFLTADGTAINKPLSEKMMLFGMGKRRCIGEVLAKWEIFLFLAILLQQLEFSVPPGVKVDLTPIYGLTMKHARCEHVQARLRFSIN
The test can be described thus: Inhibition of CYP1A2 in human liver microsomes in presence of NADPH by LC-MS/MS method. The test is classed as ADME, Microsome.

In another test the target is Cytochrome P450 2C19 (Homo sapiens, UniProt P33261). The test can be described thus: Inhibition of CYP2C19 in human liver microsomes in presence of NADPH by LC-MS/MS method. In kind it is ADME, Microsome.
A further test concerns the target Cytochrome P450 3A4 (Homo sapiens, UniProt P08684). The test can be described thus: Inhibition of CYP3A4 in human liver microsomes in presence of NADPH by LC-MS/MS method. The test is classed as ADME, Microsome.
Test [1] deals with T2, Polyamine deacetylase HDAC10 (Homo sapiens, UniProt Q969S8).
T2 sequence (Q969S8 whole entry): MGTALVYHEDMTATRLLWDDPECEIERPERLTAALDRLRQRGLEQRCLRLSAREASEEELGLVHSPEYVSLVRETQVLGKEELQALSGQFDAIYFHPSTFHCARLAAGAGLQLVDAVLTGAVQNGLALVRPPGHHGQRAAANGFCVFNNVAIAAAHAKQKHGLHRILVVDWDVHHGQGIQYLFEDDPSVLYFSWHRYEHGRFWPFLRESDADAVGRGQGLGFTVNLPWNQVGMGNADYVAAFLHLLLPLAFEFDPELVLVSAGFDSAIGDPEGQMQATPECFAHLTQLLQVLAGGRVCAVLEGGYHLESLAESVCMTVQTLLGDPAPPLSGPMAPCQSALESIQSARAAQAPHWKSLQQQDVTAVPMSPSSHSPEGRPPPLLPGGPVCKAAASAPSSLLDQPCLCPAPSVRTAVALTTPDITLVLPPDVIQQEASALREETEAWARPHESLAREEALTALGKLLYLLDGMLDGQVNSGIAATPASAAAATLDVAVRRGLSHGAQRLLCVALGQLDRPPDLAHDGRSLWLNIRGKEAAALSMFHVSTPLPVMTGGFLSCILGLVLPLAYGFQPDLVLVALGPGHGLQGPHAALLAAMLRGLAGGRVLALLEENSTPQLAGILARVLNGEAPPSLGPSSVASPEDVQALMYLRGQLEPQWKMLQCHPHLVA
As to the kind of experiment: Inhibition of HDAC10 using p53 (379 to 382 residues) based fluorogenic peptide substrate.

For a further test, the target named is Histone deacetylase 9 (Homo sapiens, UniProt Q9UKV0). As to the kind of experiment: Inhibition of HDAC9 using p53 (379 to 382 residues) based fluorogenic peptide substrate.
In test [2] the target is T3, Protein deacetylase HDAC6 (Homo sapiens, UniProt Q9UBN7).
T3 sequence (Q9UBN7 whole entry): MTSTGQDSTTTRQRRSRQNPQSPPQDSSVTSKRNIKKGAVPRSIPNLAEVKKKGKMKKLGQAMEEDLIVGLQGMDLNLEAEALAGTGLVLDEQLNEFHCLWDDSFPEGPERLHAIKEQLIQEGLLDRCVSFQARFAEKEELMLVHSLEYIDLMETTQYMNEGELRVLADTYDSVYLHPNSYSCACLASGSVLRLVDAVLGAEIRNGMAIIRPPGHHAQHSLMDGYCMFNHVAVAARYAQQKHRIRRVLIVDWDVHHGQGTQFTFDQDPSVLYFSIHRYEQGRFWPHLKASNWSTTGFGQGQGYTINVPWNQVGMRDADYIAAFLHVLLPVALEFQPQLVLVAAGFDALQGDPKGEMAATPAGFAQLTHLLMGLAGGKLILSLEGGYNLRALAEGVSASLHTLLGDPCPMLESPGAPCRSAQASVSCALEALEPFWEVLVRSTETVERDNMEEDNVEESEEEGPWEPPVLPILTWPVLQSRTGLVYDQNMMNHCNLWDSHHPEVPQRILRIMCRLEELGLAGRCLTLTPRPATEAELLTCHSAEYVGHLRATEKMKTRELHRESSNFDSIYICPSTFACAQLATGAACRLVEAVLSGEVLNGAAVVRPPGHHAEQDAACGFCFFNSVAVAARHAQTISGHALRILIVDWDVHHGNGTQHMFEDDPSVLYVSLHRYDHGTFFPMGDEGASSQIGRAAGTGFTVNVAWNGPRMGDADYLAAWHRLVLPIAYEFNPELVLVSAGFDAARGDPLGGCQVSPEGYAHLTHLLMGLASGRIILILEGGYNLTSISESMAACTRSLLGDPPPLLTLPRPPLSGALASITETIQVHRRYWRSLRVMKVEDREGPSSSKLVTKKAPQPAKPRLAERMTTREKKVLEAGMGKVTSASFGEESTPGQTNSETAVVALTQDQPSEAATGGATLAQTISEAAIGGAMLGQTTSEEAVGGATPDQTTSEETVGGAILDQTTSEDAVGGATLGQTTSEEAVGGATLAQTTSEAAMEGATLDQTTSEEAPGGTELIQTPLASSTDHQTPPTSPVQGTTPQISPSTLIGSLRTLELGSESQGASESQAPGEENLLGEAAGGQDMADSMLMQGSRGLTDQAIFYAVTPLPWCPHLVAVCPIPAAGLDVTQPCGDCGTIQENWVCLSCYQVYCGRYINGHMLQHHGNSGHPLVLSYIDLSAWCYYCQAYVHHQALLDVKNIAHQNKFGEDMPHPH
As to the kind of experiment: Inhibition of HDAC6 using p53 (379 to 382 residues) based fluorogenic peptide substrate.

A further test deals with Histone deacetylase 5 (Homo sapiens, UniProt Q9UQL6). As to the kind of experiment: Inhibition of HDAC5 using p53 (379 to 382 residues) based fluorogenic peptide substrate.
Another test deals with Histone deacetylase 1 (Homo sapiens, UniProt Q13547). As to the kind of experiment: Inhibition of HDAC1 using p53 (379 to 382 residues) based fluorogenic peptide substrate.
Another test addresses Histone deacetylase 3 (Homo sapiens, UniProt O15379). As to the kind of experiment: Inhibition of HDAC3 using p53 (379 to 382 residues) based fluorogenic peptide substrate.
The next test deals with Histone deacetylase 2 (Homo sapiens, UniProt Q92769). As to the kind of experiment: Inhibition of HDAC2 using p53 (379 to 382 residues) based fluorogenic peptide substrate.
Chain of Histone deacetylase 2 (Q92769 whole entry, the tested form may be a part): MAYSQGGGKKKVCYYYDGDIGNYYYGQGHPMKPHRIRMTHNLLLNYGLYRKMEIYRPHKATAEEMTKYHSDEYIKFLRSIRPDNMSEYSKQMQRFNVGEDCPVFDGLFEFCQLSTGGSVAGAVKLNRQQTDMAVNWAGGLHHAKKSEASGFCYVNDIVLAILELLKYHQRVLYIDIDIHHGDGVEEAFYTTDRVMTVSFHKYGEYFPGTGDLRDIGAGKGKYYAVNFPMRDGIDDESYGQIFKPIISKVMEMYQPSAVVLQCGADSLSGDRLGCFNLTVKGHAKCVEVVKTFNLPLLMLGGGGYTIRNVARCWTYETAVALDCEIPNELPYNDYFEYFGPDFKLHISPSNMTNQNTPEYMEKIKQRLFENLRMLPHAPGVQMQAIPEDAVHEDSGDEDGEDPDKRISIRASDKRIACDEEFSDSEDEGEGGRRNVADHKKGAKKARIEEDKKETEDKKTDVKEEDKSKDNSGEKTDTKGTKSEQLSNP

Chain of Histone deacetylase 1 (Q13547 whole entry, the tested form may be a part): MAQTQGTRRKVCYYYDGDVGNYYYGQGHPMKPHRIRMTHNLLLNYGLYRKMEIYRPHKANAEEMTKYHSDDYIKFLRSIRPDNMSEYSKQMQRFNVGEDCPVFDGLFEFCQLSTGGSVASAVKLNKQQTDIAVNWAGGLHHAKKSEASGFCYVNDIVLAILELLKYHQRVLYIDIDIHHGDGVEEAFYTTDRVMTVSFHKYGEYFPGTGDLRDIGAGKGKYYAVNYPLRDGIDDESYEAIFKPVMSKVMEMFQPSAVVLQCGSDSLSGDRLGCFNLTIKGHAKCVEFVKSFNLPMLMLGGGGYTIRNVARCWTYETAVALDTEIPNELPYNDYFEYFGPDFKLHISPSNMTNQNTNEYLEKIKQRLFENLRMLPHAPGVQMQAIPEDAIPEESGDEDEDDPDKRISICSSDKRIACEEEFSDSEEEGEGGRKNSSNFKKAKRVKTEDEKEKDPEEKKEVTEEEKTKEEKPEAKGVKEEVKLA
Chain of Cytochrome P450 2C19 (P33261 whole entry): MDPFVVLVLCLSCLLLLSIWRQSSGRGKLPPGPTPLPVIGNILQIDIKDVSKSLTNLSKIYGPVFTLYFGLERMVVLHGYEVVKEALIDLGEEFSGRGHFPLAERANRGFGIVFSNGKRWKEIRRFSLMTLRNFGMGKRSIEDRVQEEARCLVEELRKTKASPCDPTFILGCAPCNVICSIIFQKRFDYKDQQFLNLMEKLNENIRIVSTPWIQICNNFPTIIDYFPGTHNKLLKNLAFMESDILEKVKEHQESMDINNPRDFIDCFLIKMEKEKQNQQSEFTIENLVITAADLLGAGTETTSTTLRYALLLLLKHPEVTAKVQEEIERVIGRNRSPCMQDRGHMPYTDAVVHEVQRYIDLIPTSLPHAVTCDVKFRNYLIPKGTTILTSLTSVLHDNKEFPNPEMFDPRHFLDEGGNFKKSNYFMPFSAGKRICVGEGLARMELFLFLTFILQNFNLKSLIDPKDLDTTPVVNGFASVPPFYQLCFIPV
Chain of Cytochrome P450 3A4 (P08684 whole entry): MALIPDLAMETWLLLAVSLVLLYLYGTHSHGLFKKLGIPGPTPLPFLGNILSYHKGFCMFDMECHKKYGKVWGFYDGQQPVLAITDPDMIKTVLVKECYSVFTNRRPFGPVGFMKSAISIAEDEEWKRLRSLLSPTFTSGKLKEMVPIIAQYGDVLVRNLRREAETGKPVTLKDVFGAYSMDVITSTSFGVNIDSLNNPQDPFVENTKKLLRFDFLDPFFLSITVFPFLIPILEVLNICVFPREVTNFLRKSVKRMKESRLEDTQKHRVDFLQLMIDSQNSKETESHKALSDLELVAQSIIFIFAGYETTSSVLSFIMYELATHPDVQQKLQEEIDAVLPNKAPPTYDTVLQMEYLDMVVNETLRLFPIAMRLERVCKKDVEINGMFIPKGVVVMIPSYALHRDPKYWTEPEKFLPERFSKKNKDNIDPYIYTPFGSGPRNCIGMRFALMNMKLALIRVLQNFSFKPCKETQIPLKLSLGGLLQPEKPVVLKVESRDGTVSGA
Chain of Histone deacetylase 5 (Q9UQL6 whole entry, the tested form may be a part): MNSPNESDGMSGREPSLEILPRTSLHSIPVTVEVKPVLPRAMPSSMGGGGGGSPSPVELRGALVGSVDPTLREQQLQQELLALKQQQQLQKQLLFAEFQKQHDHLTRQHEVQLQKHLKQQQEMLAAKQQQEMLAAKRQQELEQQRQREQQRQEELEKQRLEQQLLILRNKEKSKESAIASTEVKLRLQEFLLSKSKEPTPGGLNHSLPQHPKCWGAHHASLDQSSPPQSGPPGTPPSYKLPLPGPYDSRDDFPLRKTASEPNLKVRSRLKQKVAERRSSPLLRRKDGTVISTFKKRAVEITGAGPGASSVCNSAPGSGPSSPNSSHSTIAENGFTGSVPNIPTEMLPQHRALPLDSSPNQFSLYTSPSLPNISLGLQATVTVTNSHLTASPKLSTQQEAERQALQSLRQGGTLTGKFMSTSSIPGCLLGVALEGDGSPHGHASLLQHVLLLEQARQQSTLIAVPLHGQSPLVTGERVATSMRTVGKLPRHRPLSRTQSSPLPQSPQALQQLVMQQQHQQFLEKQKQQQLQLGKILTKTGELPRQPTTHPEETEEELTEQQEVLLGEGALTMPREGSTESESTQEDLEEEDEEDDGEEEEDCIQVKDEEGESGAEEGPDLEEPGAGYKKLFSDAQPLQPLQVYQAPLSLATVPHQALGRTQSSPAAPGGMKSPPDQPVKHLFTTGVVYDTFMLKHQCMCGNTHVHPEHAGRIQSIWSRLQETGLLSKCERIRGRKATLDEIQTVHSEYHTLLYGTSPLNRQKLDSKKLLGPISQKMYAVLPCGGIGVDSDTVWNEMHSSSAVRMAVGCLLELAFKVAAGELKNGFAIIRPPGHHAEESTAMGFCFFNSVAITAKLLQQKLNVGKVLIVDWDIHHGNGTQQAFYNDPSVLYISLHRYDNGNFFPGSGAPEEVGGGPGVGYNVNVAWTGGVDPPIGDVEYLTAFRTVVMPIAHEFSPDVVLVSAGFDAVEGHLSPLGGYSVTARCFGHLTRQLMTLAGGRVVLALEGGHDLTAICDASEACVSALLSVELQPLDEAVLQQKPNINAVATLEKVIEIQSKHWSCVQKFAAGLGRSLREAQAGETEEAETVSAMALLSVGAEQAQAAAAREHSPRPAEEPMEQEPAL
Chain of Histone deacetylase 9 (Q9UKV0 whole entry, the tested form may be a part): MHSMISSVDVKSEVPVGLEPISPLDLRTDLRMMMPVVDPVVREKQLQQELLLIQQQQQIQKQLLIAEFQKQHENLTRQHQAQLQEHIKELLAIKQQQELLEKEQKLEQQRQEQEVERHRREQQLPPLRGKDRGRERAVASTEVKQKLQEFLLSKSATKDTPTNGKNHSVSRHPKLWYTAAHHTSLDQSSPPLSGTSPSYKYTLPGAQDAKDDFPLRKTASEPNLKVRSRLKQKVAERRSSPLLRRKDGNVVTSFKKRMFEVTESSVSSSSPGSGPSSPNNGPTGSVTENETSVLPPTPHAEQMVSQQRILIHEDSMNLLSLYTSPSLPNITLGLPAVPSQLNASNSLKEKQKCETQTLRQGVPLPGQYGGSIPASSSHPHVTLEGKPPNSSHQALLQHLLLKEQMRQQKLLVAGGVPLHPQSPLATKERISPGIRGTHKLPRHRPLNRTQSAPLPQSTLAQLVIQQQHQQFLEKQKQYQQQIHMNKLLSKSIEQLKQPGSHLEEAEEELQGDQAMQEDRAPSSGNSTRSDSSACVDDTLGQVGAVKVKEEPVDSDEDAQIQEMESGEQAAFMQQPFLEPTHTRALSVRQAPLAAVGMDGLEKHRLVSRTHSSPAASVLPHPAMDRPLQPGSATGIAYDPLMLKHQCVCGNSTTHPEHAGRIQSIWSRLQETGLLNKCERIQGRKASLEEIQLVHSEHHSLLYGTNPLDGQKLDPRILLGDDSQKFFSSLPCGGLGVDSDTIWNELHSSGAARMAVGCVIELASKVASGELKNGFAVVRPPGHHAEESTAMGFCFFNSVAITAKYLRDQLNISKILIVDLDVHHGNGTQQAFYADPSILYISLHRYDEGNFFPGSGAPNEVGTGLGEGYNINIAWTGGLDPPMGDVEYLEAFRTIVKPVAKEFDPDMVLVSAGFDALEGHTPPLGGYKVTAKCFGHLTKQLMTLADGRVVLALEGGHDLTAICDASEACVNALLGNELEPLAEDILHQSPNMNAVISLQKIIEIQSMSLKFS
Chain of Histone deacetylase 3 (O15379 whole entry, the tested form may be a part): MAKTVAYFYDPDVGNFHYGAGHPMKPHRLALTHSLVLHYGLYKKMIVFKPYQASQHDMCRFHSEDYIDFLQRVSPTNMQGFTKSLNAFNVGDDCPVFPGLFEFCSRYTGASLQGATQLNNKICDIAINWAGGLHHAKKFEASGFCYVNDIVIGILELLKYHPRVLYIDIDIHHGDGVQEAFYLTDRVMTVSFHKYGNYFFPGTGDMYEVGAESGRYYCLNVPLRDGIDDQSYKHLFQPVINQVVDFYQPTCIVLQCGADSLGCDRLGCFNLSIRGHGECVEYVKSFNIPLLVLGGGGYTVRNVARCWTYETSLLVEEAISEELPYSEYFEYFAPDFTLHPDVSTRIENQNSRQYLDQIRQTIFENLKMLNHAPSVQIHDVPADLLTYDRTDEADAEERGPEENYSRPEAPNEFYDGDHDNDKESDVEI

The IC50 is the point on the concentration scale where inhibition reaches its midpoint. In the case of `CN1C[C@H](C(=O)Nc2ccc(Cl)cc2)[C@@H](c2ccc(/C=C/C(=O)Nc3ccccc3N)cc2F)C1` (racemic), the concentration for half-maximal inhibition (IC50) is 28 µM on Cytochrome P450 1A2; 21 µM on Cytochrome P450 2C19; 4 µM at Cytochrome P450 3A4; 5 µM in test [1]; 43 µM at Histone deacetylase 9; over 30 µM in test [2]. Further, the half-maximal inhibitory concentration (IC50) against Histone deacetylase 5 was determined as 5.3 µM; against Histone deacetylase 1, 0.1 µM; against Histone deacetylase 3, 0.23 µM; at Histone deacetylase 2 it was 0.22 µM.
On to `CN1C[C@H](C(=O)Nc2ccc(Cl)cc2)[C@@H](c2ccc(/C=C/C(=O)Nc3ccccc3N)cc2)C1`, for which the IC50 on Cytochrome P450 1A2 was 42 µM; at Cytochrome P450 2C19, 43 µM; at Cytochrome P450 3A4 it was 14 µM; in test [1] it was 3.4 µM; on Histone deacetylase 9, 16 µM; in test [2], over 30 µM. For the same compound, the IC50 against Histone deacetylase 5 turned out to be 3.5 µM; at Histone deacetylase 1 it was 0.06 µM; against Histone deacetylase 3, 0.23 µM; against Histone deacetylase 2, 0.25 µM.
For `CN1C[C@@H](C(=O)Nc2ccc(Cl)cc2)[C@H](c2ccc(/C=C/C(=O)Nc3ccccc3N)cc2)C1`, the half-maximal inhibitory concentration (IC50) at Cytochrome P450 1A2 was 50 µM; on Cytochrome P450 2C19, 43 µM; on Cytochrome P450 3A4, 21 µM; in test [1], 1.6 µM; against Histone deacetylase 9, 13 µM; in test [2], over 30 µM. Also, the half-maximal inhibitory concentration (IC50) worked out at 1.1 µM at Histone deacetylase 5, 0.14 µM at Histone deacetylase 1, 0.2 µM against Histone deacetylase 3 and 0.27 µM at Histone deacetylase 2.
